Measured values taken from PMC10112881 (Cell reports, 2023).

Experiments:
α2A = α2A (Homo sapiens, UniProt P08913); test: G protein dissociation BRET assay; type: cell-based; conditions: read-out: KB (antagonist)
33 human aminergic GPCRs = test: Pan-aminergic GPCR functional screen; type: cell-based; conditions: of 33 aminergic GPCR targets tested
[1] = tested on: 5-HT1 Gi/o-coupled receptor subtypes; test: G protein dissociation BRET assay; type: cell-based, human
[2] = Chronic variable stress: open field test; type: in vivo, female mice
hERG (KV11.1) channel = hERG (KV11.1) channel (Homo sapiens, UniProt Q12809); test: hERG inhibition
hERG (KV11.1) channel, sequence (Q12809 whole entry): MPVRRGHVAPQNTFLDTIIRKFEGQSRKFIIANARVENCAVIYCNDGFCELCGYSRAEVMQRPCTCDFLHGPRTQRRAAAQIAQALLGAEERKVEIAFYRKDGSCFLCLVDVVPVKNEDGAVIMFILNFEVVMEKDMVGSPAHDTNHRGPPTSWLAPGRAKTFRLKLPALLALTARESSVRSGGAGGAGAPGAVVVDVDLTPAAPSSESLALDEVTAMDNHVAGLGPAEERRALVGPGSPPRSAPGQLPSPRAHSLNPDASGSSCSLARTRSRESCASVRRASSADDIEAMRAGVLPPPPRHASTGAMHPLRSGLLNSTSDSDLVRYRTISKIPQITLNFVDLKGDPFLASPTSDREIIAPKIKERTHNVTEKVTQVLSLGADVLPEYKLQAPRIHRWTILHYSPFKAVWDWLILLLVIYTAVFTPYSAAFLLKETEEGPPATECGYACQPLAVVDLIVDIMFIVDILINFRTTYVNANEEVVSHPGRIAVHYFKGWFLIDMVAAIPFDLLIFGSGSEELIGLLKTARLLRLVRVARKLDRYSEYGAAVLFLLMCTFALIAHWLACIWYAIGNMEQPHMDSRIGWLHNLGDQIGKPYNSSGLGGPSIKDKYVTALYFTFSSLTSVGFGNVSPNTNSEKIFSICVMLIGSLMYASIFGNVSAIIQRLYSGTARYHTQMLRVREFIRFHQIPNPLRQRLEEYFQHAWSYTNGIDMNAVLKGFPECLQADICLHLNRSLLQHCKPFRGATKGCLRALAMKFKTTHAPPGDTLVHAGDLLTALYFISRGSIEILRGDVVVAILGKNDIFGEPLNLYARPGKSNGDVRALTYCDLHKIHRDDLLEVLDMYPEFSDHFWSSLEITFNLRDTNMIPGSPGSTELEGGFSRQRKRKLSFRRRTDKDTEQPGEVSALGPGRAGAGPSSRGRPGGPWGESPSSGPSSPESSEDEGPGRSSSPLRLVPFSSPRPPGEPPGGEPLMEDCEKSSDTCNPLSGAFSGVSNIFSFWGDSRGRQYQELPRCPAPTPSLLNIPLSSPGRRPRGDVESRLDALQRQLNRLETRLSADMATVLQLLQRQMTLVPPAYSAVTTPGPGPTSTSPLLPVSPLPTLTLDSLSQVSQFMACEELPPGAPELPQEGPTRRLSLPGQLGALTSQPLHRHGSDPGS

HTR induced by DOI = test: Tolerance to DOI-induced HTR after repeated treatment; conditions: 3 mg/kg/day IP 7 days, DOI 1 mg/kg challenge 24 h later
α2B = α2B (Homo sapiens, UniProt P18089); test: G protein dissociation BRET assay; type: cell-based; conditions: read-out: KB (antagonist)
α2B, sequence (P18089 whole entry): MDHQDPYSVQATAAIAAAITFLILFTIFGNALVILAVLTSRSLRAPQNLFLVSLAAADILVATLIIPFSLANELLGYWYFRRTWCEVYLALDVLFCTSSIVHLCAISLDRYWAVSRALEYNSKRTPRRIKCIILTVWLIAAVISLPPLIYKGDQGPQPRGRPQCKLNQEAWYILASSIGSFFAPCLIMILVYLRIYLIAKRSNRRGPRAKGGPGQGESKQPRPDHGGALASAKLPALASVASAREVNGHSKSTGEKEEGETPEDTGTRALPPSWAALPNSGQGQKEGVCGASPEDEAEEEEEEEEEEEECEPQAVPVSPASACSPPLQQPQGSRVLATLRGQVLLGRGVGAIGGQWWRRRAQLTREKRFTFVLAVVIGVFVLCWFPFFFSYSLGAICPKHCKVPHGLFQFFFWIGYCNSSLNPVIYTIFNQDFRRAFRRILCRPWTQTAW

5-HT2C = 5-HT2C (Homo sapiens, UniProt P28335); type: cell-based
5-HT2C, sequence (P28335 33-458): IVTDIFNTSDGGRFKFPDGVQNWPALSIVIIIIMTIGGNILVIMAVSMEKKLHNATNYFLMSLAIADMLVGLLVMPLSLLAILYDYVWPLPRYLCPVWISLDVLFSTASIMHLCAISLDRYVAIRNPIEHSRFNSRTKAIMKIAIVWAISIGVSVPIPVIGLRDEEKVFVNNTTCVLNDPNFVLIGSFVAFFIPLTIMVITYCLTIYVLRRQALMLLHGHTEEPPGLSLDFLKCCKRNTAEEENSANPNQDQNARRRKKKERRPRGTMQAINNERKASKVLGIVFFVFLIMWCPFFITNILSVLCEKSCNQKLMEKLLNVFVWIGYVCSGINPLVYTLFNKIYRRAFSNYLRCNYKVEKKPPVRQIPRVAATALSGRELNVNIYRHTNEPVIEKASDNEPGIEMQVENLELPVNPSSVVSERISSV

[3] = tested on: 44 known off-targets and other transporters; test: Eurofins panel of 44 known off-targets and other transporters
β1 = β1 (Homo sapiens, UniProt P08588); test: G protein dissociation BRET assay; type: cell-based; conditions: read-out: KB (antagonist)
β1, sequence (P08588 whole entry): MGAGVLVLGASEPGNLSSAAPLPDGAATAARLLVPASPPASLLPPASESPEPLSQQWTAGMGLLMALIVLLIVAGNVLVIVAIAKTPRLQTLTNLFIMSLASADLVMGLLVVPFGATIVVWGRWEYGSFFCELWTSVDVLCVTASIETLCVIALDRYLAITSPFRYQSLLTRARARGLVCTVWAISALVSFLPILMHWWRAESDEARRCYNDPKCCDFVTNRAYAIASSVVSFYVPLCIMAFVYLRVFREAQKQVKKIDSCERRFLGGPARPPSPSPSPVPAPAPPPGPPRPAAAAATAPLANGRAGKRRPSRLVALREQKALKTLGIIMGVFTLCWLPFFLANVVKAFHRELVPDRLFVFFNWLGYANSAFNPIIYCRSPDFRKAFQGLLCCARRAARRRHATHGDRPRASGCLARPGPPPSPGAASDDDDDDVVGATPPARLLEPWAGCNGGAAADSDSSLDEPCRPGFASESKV

α2A, sequence (P08913 whole entry): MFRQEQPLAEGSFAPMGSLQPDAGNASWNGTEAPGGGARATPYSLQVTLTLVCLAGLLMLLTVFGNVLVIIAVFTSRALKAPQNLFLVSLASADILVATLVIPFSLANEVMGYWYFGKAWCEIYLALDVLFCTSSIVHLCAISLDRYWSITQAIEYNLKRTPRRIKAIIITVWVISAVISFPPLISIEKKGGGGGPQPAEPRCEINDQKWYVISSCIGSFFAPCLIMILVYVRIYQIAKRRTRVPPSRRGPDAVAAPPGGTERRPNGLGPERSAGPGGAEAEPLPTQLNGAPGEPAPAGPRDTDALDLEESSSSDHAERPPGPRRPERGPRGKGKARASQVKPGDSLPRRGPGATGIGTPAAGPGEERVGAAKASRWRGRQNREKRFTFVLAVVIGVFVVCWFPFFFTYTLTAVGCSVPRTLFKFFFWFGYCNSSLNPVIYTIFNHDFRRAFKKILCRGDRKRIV

**Q.** Which Kb (α2A) does the source give for `CCN(CC)C(=O)[C@@H]1C=C2c3cccc4[nH]c(Br)c(c34)C[C@H]2N(C)C1.CCN(CC)C(=O)[C@@H]1C=C2c3cccc4[nH]c(Br)c(c34)C[C@H]2N(C)C1.O=C(O)C(O)C(O)C(=O)O` [2-Br-LSD, (6aR,9R)-2-bromolysergic acid diethylamide (2:1) (+)-tartrate] here?
**A.** 12 nM

**Q.** What about the “number of aminergic GPCR targets with agonist activity” value (33 human aminergic GPCRs) of the same compound?
**A.** 14

**Q.** What about the “agonism at all 5-HT1 subtypes” value [1] of the same compound?
**A.** potent pan-agonism

**Q.** What about the “exploration of the arena center in CVS mice” value ([2]; 1X 3 mg/kg IP) of the same compound?
**A.** partially restored the effect of CVS

**Q.** What about the “exploration of the arena center in CVS mice” value ([2]; 4X 1 mg/kg IP every 48 h) of the same compound?
**A.** levels matching the control

**Q.** What about the “time exploring the center in CVS mice” value ([2]; 4X 1 mg/kg, 28 days after the last treatment) of the same compound?
**A.** remained reversed

**Q.** What about the EC50 (hERG (KV11.1) channel) of the same compound?
**A.** 31600 nM

**Q.** And the “tolerance on HTR after repeated treatment” value (HTR induced by DOI)?
**A.** no tolerance was observed

**Q.** What about the Kb (α2B) of the same compound?
**A.** 79 nM

**Q.** And the β-arrestin2 recruitment agonism (5-HT2C)?
**A.** no detectable β-arrestin2 recruitment agonism

**Q.** And the “preference for serotonin and dopamine GPCRs over off-targets” value [3]?
**A.** > 100 fold

**Q.** What about the Kb (β1) of the same compound?
**A.** 113 nM
